Experimental data taken from patent US12643882B2, “Inhibitors of human respiratory syncytial virus and metapneumovirus” (priority 2022, dated 2026).
Where two headings read alike, the source gives them in different places.

Experiments:
hMPV-GFP virus = test: microbe, parasite or virus in culture; assay type: cell-based, human metapneumovirus
In short: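 VERO cells infected with GFP-expressing hMPV at MOI 1.25 were incubated 48 h at 37 °C with compound in 10-point 3-fold dilutions (typically 40,300–2 nM final). GFP-positive cells were counted by imaging. Same-well CellTiter-Glo gave cytotoxicity, and IC50/CC50 came from 4-parameter logistic fits.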

RSV-A2-GFP virus = test: microbe, parasite or virus in culture; assay type: cell-based, Human Respiratory Syncytial Virus
In short: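 Assay-ready frozen Calu-1 cells at 20,000 cells/mL were infected with recombinant RSV-A2-GFP (MOI 1.2) in DMEM with 2% FBS. Cells were exposed to 10-point 3-fold compound dilutions for 96 h at 37° C. GFP-positive cells were counted by imaging, with same-well CellTiter-Glo for cytotoxicity, and IC50 and CC50 came from 4-parameter logistic fits.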

[1] = VERO cells infected with hMPV-GFP, 48 hrs, GFP-expressing cells counted, read-out: hMPV EC50
[2] = Calu-1 cells infected with RSV-A2-GFP, 96 hrs, GFP-expressing cells counted, read-out: RSV EC50
[3] = human metapneumovirus, Vero, 48 h, read-out: hMPV EC50, VERO cells infected with hMPV-GFP, 48 hrs, GFP-expressing cells counted
[4] = human respiratory syncytial virus, Calu-1, 96 h, read-out: RSV EC50, Calu-1 cells infected with RSV-A2-GFP, 96 hrs, GFP-expressing cells counted

Structure (SMILES) | EC50 (hMPV-GFP virus; [1]) [nM] | EC50 (RSV-A2-GFP virus; [2]) [nM] | EC50 (hMPV-GFP virus; [3]) [nM] | EC50 (RSV-A2-GFP virus; [4]) [nM]
Cn1nc(-c2ncccn2)cc1C(=O)N1C[C@@H]2[C@H](C1)[C@H]2Oc1cc(C(C)(C)N)cc(-c2ccc3c(c2)CC3(F)F)n1 [Example 98, ((1R,5S,6s)-6-((4-(2-aminopropan-2-yl)-6-(7,7-difluorobicyclo[4.2.0]octa-1(6),2,4-trien-3-yl)pyridin-2-yl)oxy)-3-azabicyclo[3.1.0]hexan-3-yl)(1-methyl-3-(pyrimidin-2-yl)-1H-pyrazol-5-yl)methanone] | > 100 | < 10 |  | 
Cc1nn(-c2ncccn2)cc1C(=O)N1C[C@@H]2[C@H](C1)[C@H]2Oc1cc(C(C)(C)N)cc(-c2ccc3c(c2)CC3(F)F)n1 [Example 99, ((1R,5S,6s)-6-((4-(2-aminopropan-2-yl)-6-(7,7-difluorobicyclo[4.2.0]octa-1(6),2,4-trien-3-yl)pyridin-2-yl)oxy)-3-azabicyclo[3.1.0]hexan-3-yl)(3-methyl-1-(pyrimidin-2-yl)-1H-pyrazol-4-yl)methanone] | > 100 | < 10 |  | 
Cc1nn(-c2ncccn2)cc1C(=O)N1C[C@@H]2[C@H](C1)[C@H]2Oc1cc(C(C)(C)N)cc(N2CCC(C)(C)CC2)n1 [Example 100, ((1R,5S,6s)-6-((4-(2-aminopropan-2-yl)-6-(4,4-dimethylpiperidin-1-yl)pyridin-2-yl)oxy)-3-azabicyclo[3.1.0]hexan-3-yl)(3-methyl-1-(pyrimidin-2-yl)-1H-pyrazol-4-yl)methanone] | > 100 | < 10 |  | 
CC1(C)CCN(c2cc(C(C)(C)N)cc(O[C@H]3[C@@H]4CN(C(=O)c5cn(-c6ncccn6)nc5C(F)F)C[C@@H]43)n2)CC1 [Example 101, ((1R,5S,6s)-6-((4-(2-aminopropan-2-yl)-6-(4,4-dimethylpiperidin-1-yl)pyridin-2-yl)oxy)-3-azabicyclo[3.1.0]hexan-3-yl)(3-(difluoromethyl)-1-(pyrimidin-2-yl)-1H-pyrazol-4-yl)methanone] | > 100 | < 10 |  | 
Cc1nn(-c2ncccn2)cc1C(=O)N1C[C@@H]2[C@H](C1)[C@H]2Oc1cc(C(C)(C)N)cc(N2CCC(C(F)(F)F)CC2)n1 [Example 102, ((1R,5S,6s)-6-((4-(2-aminopropan-2-yl)-6-(4-(trifluoromethyl)piperidin-1-yl)pyridin-2-yl)oxy)-3-azabicyclo[3.1.0]hexan-3-yl)(3-methyl-1-(pyrimidin-2-yl)-1H-pyrazol-4-yl)methanone] | > 100 | < 10 |  | 
Cc1nc(-c2ncccn2)sc1C(=O)N1C[C@@H]2[C@H](C1)[C@H]2Oc1cc(-c2ccc(F)cc2)nc(C(C)(C)N)c1 [Example 114, ((1R,5S,6s)-6-((2-(2-aminopropan-2-yl)-6-(4-fluorophenyl)pyridin-4-yl)oxy)-3-azabicyclo[3.1.0]hexan-3-yl)(4-methyl-2-(pyrimidin-2-yl)thiazol-5-yl)methanone] |  |  | > 100 | < 10
Cc1nc(-c2ncccn2)sc1C(=O)N1C[C@@H]2[C@H](C1)[C@H]2Oc1cc(-c2ccc(F)cc2)cc(C(C)(C)N)n1 [Example 115, ((1R,5S,6s)-6-((6-(2-aminopropan-2-yl)-4-(4-fluorophenyl)pyridin-2-yl)oxy)-3-azabicyclo[3.1.0]hexan-3-yl)(4-methyl-2-(pyrimidin-2-yl)thiazol-5-yl)methanone] |  |  | > 100 | < 10
CCC(N)c1cc(O[C@H]2[C@@H]3CN(C(=O)c4cn(-c5ncccn5)nc4C)C[C@@H]32)nc(-c2ccc(F)cc2)c1 (stereo partly drawn) [Example 117A, ent-((1R,5S,6s)-6-((4-(1-aminopropyl)-6-(4-fluorophenyl)pyridin-2-yl)oxy)-3-azabicyclo[3.1.0]hexan-3-yl)(3-methyl-1-(pyrimidin-2-yl)-1H-pyrazol-4-yl)methanone] | > 100 | < 10 |  | 
Cc1nn(-c2ncccn2)cc1C(=O)N1C[C@@H]2[C@H](C1)[C@H]2Oc1cc(C(N)C(C)C)cc(-c2ccc(F)cc2)n1 (stereo partly drawn) [Example 118A, ent-((1R,5S,6s)-6-((4-(1-amino-2-methylpropyl)-6-(4-fluorophenyl)pyridin-2-yl)oxy)-3-azabicyclo[3.1.0]hexan-3-yl)(3-methyl-1-(pyrimidin-2-yl)-1H-pyrazol-4-yl)methanone] | > 100 | < 10 |  | 
Cc1nn(-c2ncccn2)cc1C(=O)N1C[C@@H]2[C@H](C1)[C@H]2Oc1cc(C(C)(C)N)c(F)c(-c2ccc(F)cc2)n1 [Example 119, ((1R,5S,6s)-6-((4-(2-aminopropan-2-yl)-5-fluoro-6-(4-fluorophenyl)pyridin-2-yl)oxy)-3-azabicyclo[3.1.0]hexan-3-yl)(3-methyl-1-(pyrimidin-2-yl)-1H-pyrazol-4-yl)methanone] |  |  | > 100 | < 10
Cc1nn(-c2ncccn2)cc1C(=O)N1C[C@@H]2[C@H](C1)[C@H]2Oc1cc(C(C)(C)N)c(Cl)c(-c2ccc(F)cc2)n1 [Example 120, ((1R,5S,6s)-6-((4-(2-aminopropan-2-yl)-5-chloro-6-(4-fluorophenyl)pyridin-2-yl)oxy)-3-azabicyclo[3.1.0]hexan-3-yl)(3-methyl-1-(pyrimidin-2-yl)-1H-pyrazol-4-yl)methanone] |  |  | > 100 | < 10
COc1nn(-c2ncccn2)cc1C(=O)N1C[C@@H]2[C@H](C1)[C@H]2Oc1cc(C(C)(C)N)c(Cl)c(-c2ccc(F)cc2)n1 [Example 121, ((1R,5S,6s)-6-((4-(2-aminopropan-2-yl)-5-chloro-6-(4-fluorophenyl)pyridin-2-yl)oxy)-3-azabicyclo[3.1.0]hexan-3-yl)(3-methoxy-1-(pyrimidin-2-yl)-1H-pyrazol-4-yl)methanone] | > 100 | < 10 |  | 
COc1nn(-c2ncccn2)cc1C(=O)N1C[C@@H]2[C@H](C1)[C@H]2Oc1cc(C(C)(C)N)cc(N2CCC(C)(C)CC2)n1 [Example 122, ((1R,5S,6s)-6-((4-(2-aminopropan-2-yl)-6-(4,4-dimethylpiperidin-1-yl)pyridin-2-yl)oxy)-3-azabicyclo[3.1.0]hexan-3-yl)(3-methoxy-1-(pyrimidin-2-yl)-1H-pyrazol-4-yl)methanone] |  |  | > 100 | < 10
Cc1nc(-c2ncccn2)sc1C(=O)N1C[C@@H]2[C@H](C1)[C@H]2Oc1cc(C(C)(C)N)cc(N2CCC(C)(C)CC2)n1 [Example 123, ((1R,5S,6s)-6-((4-(2-aminopropan-2-yl)-6-(4,4-dimethylpiperidin-1-yl)pyridin-2-yl)oxy)-3-azabicyclo[3.1.0]hexan-3-yl)(4-methyl-2-(pyrimidin-2-yl)thiazol-5-yl)methanone] | > 100 | < 10 |  | 
CCc1nn(-c2ncccn2)cc1C(=O)N1C[C@@H]2[C@H](C1)[C@H]2Oc1cc(C(C)(C)N)cc(N2CCC(C)(C)CC2)n1 [Example 124, ((1R,5S,6s)-6-((4-(2-aminopropan-2-yl)-6-(4,4-dimethylpiperidin-1-yl)pyridin-2-yl)oxy)-3-azabicyclo[3.1.0]hexan-3-yl)(3-ethyl-1-(pyrimidin-2-yl)-1H-pyrazol-4-yl)methanone] | > 100 | < 10 |  | 
Cc1nc(-c2ncccn2)sc1C(=O)N1C[C@@H]2[C@H](C1)[C@H]2Oc1cc(C(C)(C)N)cc(N2CCC(C(F)(F)F)CC2)n1 [Example 125, ((1R,5S,6s)-6-((4-(2-aminopropan-2-yl)-6-(4-(trifluoromethyl)piperidin-1-yl)pyridin-2-yl)oxy)-3-azabicyclo[3.1.0]hexan-3-yl)(4-methyl-2-(pyrimidin-2-yl)thiazol-5-yl)methanone] | > 100 | < 10 |  | 
Cc1nc(-c2ncccn2)sc1C(=O)N1C[C@@H]2[C@H](C1)[C@H]2Oc1cc(C(C)(C)N)cc(Cc2ccc(F)cc2)n1 [Example 126, ((1R,5S,6s)-6-((4-(2-aminopropan-2-yl)-6-(4-fluorobenzyl)pyridin-2-yl)oxy)-3-azabicyclo[3.1.0]hexan-3-yl)(4-methyl-2-(pyrimidin-2-yl)thiazol-5-yl)methanone] |  |  | > 100 | < 10
Cc1nn(-c2ncccn2)cc1C(=O)N1C[C@@H]2[C@H](C1)[C@H]2Oc1cc(C(C)(C)N)cc(N2CCC(C)(C)CC2C)n1 (stereo partly drawn) [Example 127A, ent-((1R,5S,6s)-6-((4-(2-aminopropan-2-yl)-6-(2,4,4-trimethylpiperidin-1-yl)pyridin-2-yl)oxy)-3-azabicyclo[3.1.0]hexan-3-yl)(3-methyl-1-(pyrimidin-2-yl)-1H-pyrazol-4-yl)methanone] | > 100 | < 10 |  | 
Cc1nn(-c2ncccn2)cc1C(=O)N1C[C@@H]2[C@H](C1)[C@H]2Oc1cc(C(C)(C)N)cc(NC(C)C2CCCC2)n1 (stereo partly drawn) [Example 128A, ent-((1R,5S,6s)-6-((4-(2-aminopropan-2-yl)-6-((1-cyclopentylethyl)amino)pyridin-2-yl)oxy)-3-azabicyclo[3.1.0]hexan-3-yl)(3-methyl-1-(pyrimidin-2-yl)-1H-pyrazol-4-yl)methanone] | > 100 | < 10 |  | 
Cc1nn(-c2ncccn2)cc1C(=O)N1C[C@@H]2[C@H](C1)[C@H]2Oc1cc(C(C)(C)N)cc(N2CCC(C(F)(F)F)CC2C)n1 (stereo partly drawn) [Example 129A, ent-((1R,5S,6s)-6-((4-(2-aminopropan-2-yl)-6-(2-methyl-4-(trifluoromethyl)piperidin-1-yl)pyridin-2-yl)oxy)-3-azabicyclo[3.1.0]hexan-3-yl)(3-methyl-1-(pyrimidin-2-yl)-1H-pyrazol-4-yl)methanone] | > 100 | < 10 |  | 
